Tests used:
[1] = system: rats with gout induced by intra-articular uric acid; experiment: Pain-induced functional impairment model in the rat (PIFIR model), antinociceptive effects; assay type: in vivo, male Wistar rats
Method: The following compounds were employed: uric acid, celecoxib and diacerein, propylene glycol, carboxymethyl cellulose and mineral oil. The celecoxib and diacerein were dissolved in propylene glycol (5%) and carboxymethyl cellulose.
It started with determining the antinociceptive effects of the individual compounds to then go on to analyze the effects of the combination, employing the “Pain-induced functional impairment model in the rat” (“PIFIR model”). The animals were anesthetized in a glass desiccator, saturated with ether vapor. The gout was induced by applying an intra-articular injection (i.a.) of 0.05 ml of uric acid suspended in mineral oil at 30% in the right hind member, precisely in the femur-tibia-patella joint.
A 1 mL glass syringe with a 4-mm-long No. 22 needle was used for the intra-articular injection. Immediately afterwards, an electrode is attached to each hind paw (of the rats) in the middle of the plantar calluses. The rats were left to recover from the anesthesia and placed in a 30-cm-diameter rotary stainless-steel cylinder. The cylinder was turned at 4 r.p.m., forcing the rats to walk for 2 min every half hour, for a total of 6.5 hours, (2.5 h to generate the arthritis and 4 h for the assessment of antinociceptive effects. The variable measured was the contact time of each one of the rats' hind legs in the cylinder.
First it was decided to determine the range of doses that could form the celecoxib dose/response curve. […] The 50 mg/kg dose of diacerein has been determined to be a proper dose in the preclinical stage to be employed in combination and be able to determine if changes are produced in the antinociceptive effects.
Thus, the possible antinociceptive effects of both the individual and the combined forms of the compounds were determined and analyzed using animals with gout in the experimental model of Pain-induced functional impairment model in the rat. […]
After the uric acid was administered to the joint to produce the gout type impairment and alteration, there was a wait of 2.5 hours for the total impairment to be produced (the symptoms of gout were already complete at 2.5 hours after the uric acid was administered). This time (2.5 hours after the administration of the uric acid) was considered to be “0” time, for administering the treatment, at this moment, with the individual drugs and the drugs in combined form, followed by the temporary courses of each treatment being determined for the following 4 hours. […]
From the afore-described that corresponds to the experimental model of preclinical analysis of this combination of celecoxib with diacerein whose protection is being sought, the following results were obtained: The data are expressed as a percentage Functionality Index (FI %). […]

[2] = system: rats; experiment: Assessment of toxic effects (lethality), oral
Text: In order to determine possible antinociceptive effects and toxic effects, male Wistar rats [Crl:(WI)BR] were employed with a weight of between 180 and 200 g. All the experimental procedures followed the recommendations of the Committee for Research and Ethical Issues of the International Association for the Study of Pain and the Guidelines on Ethical Standards for Investigations of Experiment Pain in Animals. The number of animals for experimentation was kept to a minimum (6 animals per experimental point for antinociceptive effects and 10 animals per experimental point for adverse effects: lethality). The animals were kept in a room with alternating dark/light cycles. Twelve hours before the antinociception experiments, food was withdrawn from the rats, only leaving them free access to water. All the experiments were carried out during the light phase.
In the determinations presented for the individual drugs or drugs in combination, an attempt was made to administer the treatment on a single occasion but, when this was not possible owing to the high concentration and limits of solubility, several administrations were made with 3-hour time intervals. The established doses were always increased in logarithmic units administered orally both for celecoxib and for diacerein.
In the determinations presented below, the treatment was administered on a single occasion and, in the case of celecoxib, high doses in several administrations until the required dose is completed. The established doses were always increased in logarithmic units and administered orally.

[3] = cited from earlier work

Row | SMILES | maximum antinociceptive effectiveness (AUC of temporary courses, DRC) ([1]; celecoxib by itself, oral, acute administration, doses 3.2 to 1000 mg/kg, 4 h assessment, mean ± standard error, FIG. 2) [au] | temporary courses of antinociceptive effect (FI %), dose dependence ([1]; oral, acute administration, 4 h, celecoxib 3.2 to 1000 mg/kg alone or with diacerein 50 mg/kg) | antinociceptive effects of chronic treatment compared with acute administration ([1]; oral, chronic (7 days) vs acute form) | dose that starts to generate effects of lethality at 24 hours ([2]; oral, rats, 24 h post-treatment, FIG. 7) [mg/kg] | dose that starts to generate effects of lethality at 48 hours ([2]; oral, rats, 48 h post-treatment, FIG. 8) [mg/kg] | dose that starts to generate effects of lethality at 72 hours ([2]; oral, rats, 72 h post-treatment, FIG. 9) [mg/kg] | binding to plasma proteins ([3]; in vivo) [%] | time to maximum plasma concentration ([3]; oral) | antinociceptive effect (recovery of FI %) ([1]; 50 mg/kg oral doses, 4 h of assessment) | dose that starts to generate effects of lethality at 48 hours ([2]; male, Wistar [Crl:(WI)BR], rat, in vivo, po, 48 h) [mg/kg] | dose that starts to generate effects of lethality at 72 hours ([2]; male, Wistar [Crl:(WI)BR], rat, in vivo, po, 72 h) [mg/kg] | position of the DRC for the effects of lethality ([2]; oral, rats, relative to the DRC of celecoxib by itself)
1 | Cc1ccc(-c2cc(C(F)(F)F)nn2-c2ccc(S(N)(=O)=O)cc2)cc1 [celecoxib, 4-[5-(4-methylphenyl)-3-(trifluoromethyl)-1H-pyrazol-1-yl]benzenesulfonamide] | 191.9±27.2 | dose-dependent antinociceptive effects | better antinociceptive effects | 17800 | 10000 | 5600 | 97 | around 3 hours | – | – | – | –
2 | CC(=O)Oc1cccc2c1C(=O)c1c(OC(C)=O)cc(C(=O)O)cc1C2=O [diacerein, 4,5-Bis(acetyloxy)-9,10-dihydro-9,10-dioxo-2-anthracenecarboxylic acid] | – | – | – | – | – | – | – | – | did not show any antinociceptive effect whatsoever | 1800 | 1000 | more to the left of that of celecoxib
